Patent publication US5962534A, “Regulating gene expression using retinoids with CH2 OH or related groups at the side chain terminal position” (Cornell Research Foundation, Inc., priority 1997, dated 1999)
Where two headings read alike, the source gives them in different places.

Key:
[1] = system: RARE-β-galactosidase (F9-RARE-β-galactosidase reporter cell line); assay: Transcription of RARE-β-galactosidase in F9-RARE-β-galactosidase reporter cell line; format: cell-based; conditions: Mus musculus; media lacking serum
Protocol: Cells were treated with different concentrations of retinoids in media lacking serum, harvested and assayed for β-galactosidase activity. […] The β-galactosidase activity in this cell line reflects the activation of the RARs.

RARs α, β, or γ [2] = conditions: Mangelsdorf et al (14); cited from earlier work
F9 stem cells [3] = conditions: refs (37), (38), cited from earlier work
RARs α, β, or γ [4] = assay: Inhibition of 3H-all-trans-retinoic acid binding to RARs (stated for all subtypes together); conditions: concentrations up to 50,000 nM
Protocol: (§6) Retinoids were assayed for their ability to bind members of the family of the retinoic acid receptors, the RARs, as follows:
(§7) COS-1 cells were transfected by DEAE-dextran with pSG5 expression vectors containing cDNAs for mouse RARs α, β, or γ or RXRs α, β, or γ. […] Nucleosol or cytosol fractions were prepared as described in Nervi, C., et al (30) and Nervi, C., et al (31) and stored at -70° C. until use. Aliquots of nucleosol or cytosol were incubated in nuclei lysis buffer as described in Nervi, C., et al (30) with tritiated ligands for 4 h at 4° C. […] For competitive binding assays, the incubations were performed with increasing concentrations of unlabeled competing ligand and a fixed concentration of the radioligand (10 nM ^3 H-retinoic acid). In saturation kinetic studies, incubations were performed in the presence of increasing concentrations of the indicated radioligand. For all binding assays, bound was separated from free radioactivity as described in Levin, A. A., et al (29).

RXRs α, β, or γ = assay: Inhibition of 3H-9-cis retinoic acid binding to RXRs; set-up: species or system mouse; conditions: for inhibition of 3H-9-cis retinoic acid binding to RXRs: data not shown
Source text: See Levin, A. A., et al (29).

laminin B1 = assay: Laminin B1 gene expression in F9 stem cells by Northern blot; format: cell-based; conditions: Mus musculus, F9, 72 h, read-out: Laminin B1 expression induction
Source text: (§1) Teratocarcinoma stem cells can be induced to differentiate in monolayer culture by retinoic acid over a 3-4 day period into nonmalignant endoderm cells resembling the extraembryonic endoderm of the mouse blastocyst as described in Gudas, L. J., et al (27). The F9 teratocarcinoma stem cell line is used as a model tumor cell differentiation system because F9 stem cells share similar biochemical, immunological and morphological characteristics with early mouse embryonic stem cells and additionally, large numbers of cells can be cultured and experimentally manipulated. The expression of several homeobox genes including Hoxa-1 is induced by RA in mouse teratocarcinoma cell lines as described in LaRosa, G. J., et al (34) and LaRosa, G. J., et al (35). […] See LaRosa, G. L, et al (34). Other genes such as laminin B1 are activated subsequent to the activation of Hox 1.6 by retinoic acid as described in Vasios, G. W., et al (36).

Hoxa-1 = Hoxa-1 gene expression in F9 stem cells by Northern blot; format: cell-based; conditions: Mus musculus, F9, 72 h, read-out: Hoxa-1 transcripts induction
Source text: as §1

RAR-γ = biological target: T1, RAR-γ (Mus musculus, UniProt P18911); assay: Competitive binding of 3H-all-trans-retinoic acid to RAR-γ
T1 sequence (P18911 1-458): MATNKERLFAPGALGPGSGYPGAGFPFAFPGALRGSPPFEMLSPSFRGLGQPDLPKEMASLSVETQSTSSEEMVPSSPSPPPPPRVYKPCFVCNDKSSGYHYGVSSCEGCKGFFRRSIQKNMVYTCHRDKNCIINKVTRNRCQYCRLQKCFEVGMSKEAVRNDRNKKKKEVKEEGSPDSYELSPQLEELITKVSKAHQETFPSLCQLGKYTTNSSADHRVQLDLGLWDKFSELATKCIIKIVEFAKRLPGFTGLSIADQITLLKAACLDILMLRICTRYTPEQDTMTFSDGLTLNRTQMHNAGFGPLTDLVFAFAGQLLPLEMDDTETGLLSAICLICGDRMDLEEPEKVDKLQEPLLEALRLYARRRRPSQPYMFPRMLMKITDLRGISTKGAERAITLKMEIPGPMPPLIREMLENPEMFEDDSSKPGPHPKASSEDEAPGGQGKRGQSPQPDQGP
Protocol: as §6, §7

deep (cystic) acne = assay: Treatment of patients with deep (cystic) acne; format: in vivo, human; conditions: oral, 100 mg/square meter per day; for mean reduction in lesion counts: end of 3 to 6 months; for acne clearance: after discontinuation
Source text: A very prolonged remission, and potentially permanent cure can be obtained.

F9 stem cells [5] = assay: Metabolism / half-life of retinoids in F9 cells; format: in vitro ADME, mouse
Protocol: (§2) ^3 H-4-hydroxyretinol and ^3 H-4-oxo-retinol were purified from RA treated, differentiated F9 cells (ATCC CRL 1720) after the differentiated cells were incubated with ^3 H-retinol for 18 h. The identities of purified ^3 H-4-hydroxyretinol and ^3 H-4-oxo-retinol were verified by matching both the elution times on the HPLC and the spectra of known standards.
(§3) F9 stem cells or retinoic acid-treated cells (72 h) were cultured in the presence of 50 nM of either ^3 H-4-hydroxyretinol or ^3 H-4-oxo-retinol for different periods of time.
(§4) FIGS. 5A-5D depict HPLC analysis after incubation in the presence of 50 nM ^3 H-4-oxo-retinol for periods of time as indicated and extraction using the method described in McClean, S. W., et al (15). The results are the same in both stem and retinoic acid- treated cells.

[6] = Metabolism / half-life of retinoids in F9 cells; format: in vitro ADME, mouse; conditions: mouse; 50 nM; F9 stem or differentiating cells; FIG. 5
Protocol: as §2, §3, §4

[7] = system: acute promyelocytic leukemia; assay: Treatment of acute promyelocytic leukemia patients; format: in vivo, human; conditions: oral, 100 mg/square meter per day
Protocol: Patients with morphologic diagnostic criteria for acute promyelocytic leukemia (M3 or M3 variant subtype) by karyotyping or PCR analysis, including the […] (q22; q12-21) translocation, are treated with oral all-trans-4-oxo-retinol at a dose of 100 mg/square meter of body surface area per day. The drug is formulated in soft gelatin capsules which are administered once or twice a day to provide the dose as stated. The drug is administered for 40 to 60 days until remission induction occurs as indicated by normal karyotype, disappearance of coagulation abnormalities (e.g., increased platelet count and plasma fibrinogen level), observation of differentiation of cancer cells and the appearance of mature granulocytic markers in cell surface immunophenotyping, as indicated by reduced number of cells expressing CD33 and greater portion of cells expressing CD16. Patients with newly diagnosed disease then receive all-trans-4-oxo-retinol for 30 days after remission induction; then, either conventional consolidation therapy (e.g., cytosine arabinoside) or continued treatment with all-trans-4-oxo-retinol alone is continued. During remission induction, liver function tests are performed and serum cholesterol and triglycerides are measured twice a week and bone marrow aspiration is performed once a week until complete remission or failure is documented.

psoriatic arthritis = assay: Treatment of patients with psoriatic arthritis; format: in vivo, human; conditions: oral, 50 mg/square meter per day
Water solubility = format: physicochemical; conditions: no data shown
breast cancer = assay: Treatment of patients with breast cancer; format: in vivo, human; conditions: oral, 100 mg/square meter per day
F9 stem cells [8] = assay: Intracellular concentration in differentiating F9 stem cells; format: in vitro ADME, mouse; conditions: calculated
RAR-β = biological target: T2, RAR-β (Mus musculus, UniProt P22605); assay: Competitive binding of 3H-all-trans-retinoic acid to RAR-β
T2 sequence (P22605 1-448 isoform P22605-3): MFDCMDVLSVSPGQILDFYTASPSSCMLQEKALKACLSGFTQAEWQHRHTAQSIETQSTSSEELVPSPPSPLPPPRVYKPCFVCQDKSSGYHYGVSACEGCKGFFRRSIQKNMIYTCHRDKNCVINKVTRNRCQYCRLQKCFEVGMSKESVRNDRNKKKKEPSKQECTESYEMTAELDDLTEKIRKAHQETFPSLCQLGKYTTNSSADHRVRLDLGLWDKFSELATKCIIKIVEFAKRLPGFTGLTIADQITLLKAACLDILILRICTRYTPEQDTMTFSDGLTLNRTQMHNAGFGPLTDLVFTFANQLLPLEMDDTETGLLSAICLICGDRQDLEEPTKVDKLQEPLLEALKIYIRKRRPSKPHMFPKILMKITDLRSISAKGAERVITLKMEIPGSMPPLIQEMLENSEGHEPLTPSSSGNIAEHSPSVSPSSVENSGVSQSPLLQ
Protocol: as §6, §7

[9] = system: aging or photodamaged skin; assay: Treatment of patients with aging or photodamaged skin; format: in vivo, human; conditions: oral 100 mg/square meter per day or topical 10 mg per square inch per day, 4 to 8 months
[10] = system: advanced head and neck cancer; assay: Treatment of patients with advanced head and neck cancer; format: in vivo, human; conditions: oral, 100 mg/square meter per day; for survival beyond the median: and/or reduced tumor burden
Source text: Current systemic chemotherapy regimens are unable to prolong survival of patients with advanced head and neck cancer.

[11] = system: cellular retinoic acid binding protein I (CRABP I); assay: Inhibition of all-trans-3H-retinoic acid binding to CRABP I; conditions: data not shown
RAR-α = biological target: T3, RAR-α (Mus musculus, UniProt P11416); assay: Competitive binding of 3H-all-trans-retinoic acid to RAR-α; conditions: concentration to inhibit 50% binding of 3H-all-trans-retinoic acid (10 nM); mean ± SD, at least 3 replicate experiments
T3 construct: expressed in transfected cells; host or cells: COS-1
T3 sequence (P11416 1-462): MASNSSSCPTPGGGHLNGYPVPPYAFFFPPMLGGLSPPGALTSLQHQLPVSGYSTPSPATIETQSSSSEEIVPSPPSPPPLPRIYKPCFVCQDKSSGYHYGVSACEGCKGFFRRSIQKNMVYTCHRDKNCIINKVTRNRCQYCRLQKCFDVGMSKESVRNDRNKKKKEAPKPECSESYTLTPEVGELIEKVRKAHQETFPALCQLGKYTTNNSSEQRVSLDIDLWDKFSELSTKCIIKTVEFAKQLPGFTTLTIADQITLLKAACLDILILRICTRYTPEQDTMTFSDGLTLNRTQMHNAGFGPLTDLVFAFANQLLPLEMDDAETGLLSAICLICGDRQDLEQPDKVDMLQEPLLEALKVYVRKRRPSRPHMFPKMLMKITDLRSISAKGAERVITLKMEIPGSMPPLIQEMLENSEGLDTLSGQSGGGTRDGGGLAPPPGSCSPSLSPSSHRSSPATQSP
Protocol: as §6, §7

F9 stem cells [12] = assay: Metabolism of 3H-4-hydroxyretinol in F9 cells (HPLC); format: in vitro ADME, mouse; conditions: besides 4-oxo-retinol; 50 nM
Protocol: as §2, §3
(§5) FIGS. 4A-4D depict HPLC analysis after incubation in the presence of 50 nM ^3 H-4-hydroxyretinol for periods of time as indicated and extraction using the method described in McClean, S. W., et al (15). F9 stem cells are shown in FIGS. 4A-4D to convert 4-hydroxyretinol to 4-oxo-retinol. The rate of this conversion was virtually identical in both stem and retinoic acid-treated cells. This rate was calculated to be about 20% in a period of 15 h.

[13] = as above; format: in vitro ADME, mouse; conditions: mouse, f9 cells; 50 nM, 15 h; virtually identical in stem and retinoic acid-treated cells; read-out: conversion of 4-hydroxyretinol to 4-oxo-retinol
Protocol: as §2, §3, §5

SMILES | EC50 [1] [nM] | fold induction at 1 µM (laminin B1) | fold induction at 1 µM (Hoxa-1) | IC50 (RAR-γ) [nM] | mean reduction in lesion counts (deep (cystic) acne) | acne clearance (deep (cystic) acne) | inhibition of 3H-9-cis retinoic acid binding to RXRs (RXRs α, β, or γ) | psoriatic arthritis symptoms (psoriatic arthritis) | tumor burden, breast cancer (breast cancer) | IC50 (RAR-β) [nM] | wrinkles, smoothness, pigmented areas of skin [9] | tumor burden, head and neck cancer [10] | survival beyond the median [10] | inhibition of binding of all-trans-3H-retinoic acid to CRABP I [11] | IC50 (RAR-α) [nM] | other results
CC1=C(/C=C/C(C)=C/C=C/C(C)=C/C(=O)O)C(C)(C)CCC1 [RA, all-trans-retinoic acid] | 9 |  |  |  |  |  |  |  |  |  |  |  |  |  |  | binding to α-, β- and γ-retinoic acid receptors (RARs α, β, or γ [2]): binds equally well to α-, β-, and γ-retinoic acid receptors; half-life in differentiated retinoic acid-treated F9 stem cells (F9 stem cells [3]; differentiated, enzyme induced): < 3 h; half-life in F9 stem cells (F9 stem cells [3]; undifferentiated): 3 h
CC1=C(/C=C/C(C)=C/C=C/C(C)=C/CO)C(C)(C)CCC1 [retinol, reference compound] | > 3000 | 2 | 4 |  |  |  |  |  |  |  |  |  |  |  |  | inhibition of all-trans-3H-retinoic acid binding to any of the RARs (RARs α, β, or γ [4]): no apparent inhibition; inhibition of 3H-9-cis retinoic acid binding to the RXRs (RXRs α, β, or γ; concentrations up to 50,000 nM): no apparent inhibition
CC1=C(/C=C/C(C)=C/C=C/C(C)=C/CO)C(C)(C)CCC1=O [4-oxo-retinol, all-trans-4-oxo-retinol] | 42 | 7 | 25 | 3200 ± 520 | greater than 85% | in some cases complete clearance occurs | Neither the 4-hydroxyretinol nor the 4-oxo-retinol inhibited | fewer tender joints and a decreased duration of morning stiffness | reduced tumor burden | 420 ± 110 | fewer and reduced depth of wrinkles, increased smoothness of the skin, and a reduction in pigmented areas of the skin | reduced tumor burden | 4-6 months | unable to inhibit | 330 ± 54 | inhibition of 3H-retinoic acid binding to RAR-γ, fold weaker than RAR-α and RAR-β (RAR-γ; relative to RAR-α and RAR-β, 240 min): 10 fold; half-life in F9 stem cells (F9 stem cells [5]; 50 nM, order of magnitude in words): on the order of days; metabolites of 4-oxo-retinol detected (F9 stem cells [5]; 50 nM, presumed 4-oxo-retinyl esters): small amounts of several very hydrophobic retinoids; stability in F9 stem vs differentiating cells (F9 stem cells [5]; comparison of F9 stem and differentiating cells): equally stable; induction of enzyme degrading the retinoid (F9 stem cells [5]; summary statement, vs all-trans-retinoic acid): does not induce production of enzyme which degrades it to inactive form; 4-oxo-retinoic acid formed from 4-oxo-retinol (F9 stem cells [5]; up to 15 h, 50 nM): No 4-oxo-retinoic acid was detected; half-life at 0.05 µM [6]: > 15 h; outcome of treatment in acute promyelocytic leukemia [7]: Long term cures are considered to be obtainable; water solubility compared with all-trans-retinoic acid (Water solubility): more water soluble; intracellular concentration (F9 stem cells [8]): approximately 85 nM
CC1=C(/C=C/C(C)=C/C=C/C(C)=C/CO)C(C)(C)CCC1O (stereo not drawn) [4-OH retinol] | 76 | 3 | 9 | 3400 ± 1600 | greater than 85% | in some cases complete clearance occurs | Neither the 4-hydroxyretinol nor the 4-oxo-retinol inhibited | fewer tender joints and a decreased duration of morning stiffness | reduced tumor burden | 3800 ± 1100 | fewer and reduced depth of wrinkles, increased smoothness of the skin, and a reduction in pigmented areas of the skin | reduced tumor burden | 4-6 months | unable to inhibit | 5000 ± 1400 | other metabolites of 4-hydroxyretinol (F9 stem cells [12]): No other metabolite; metabolised at 15 h, 0.05 µM [13]: ~20%
